{"source": "paper PMC8308777", "about": "“Small Molecule–Peptide Conjugates as Dimerization Inhibitors of Leishmania infantum Trypanothione Disulfide Reductase” (Pharmaceuticals, 2021)", "origin": "cited, not measured here", "molecular_target": "T1, Leishmania infantum trypanothione disulfide reductase (LiTryR) (Leishmania infantum, UniProt A4HSF7)", "T1 construct": "HIS; made in house; host or cells: E. coli BL21 (DE3) Rossetta 2", "T1 sequence (A4HSF7 entry or part of it)": "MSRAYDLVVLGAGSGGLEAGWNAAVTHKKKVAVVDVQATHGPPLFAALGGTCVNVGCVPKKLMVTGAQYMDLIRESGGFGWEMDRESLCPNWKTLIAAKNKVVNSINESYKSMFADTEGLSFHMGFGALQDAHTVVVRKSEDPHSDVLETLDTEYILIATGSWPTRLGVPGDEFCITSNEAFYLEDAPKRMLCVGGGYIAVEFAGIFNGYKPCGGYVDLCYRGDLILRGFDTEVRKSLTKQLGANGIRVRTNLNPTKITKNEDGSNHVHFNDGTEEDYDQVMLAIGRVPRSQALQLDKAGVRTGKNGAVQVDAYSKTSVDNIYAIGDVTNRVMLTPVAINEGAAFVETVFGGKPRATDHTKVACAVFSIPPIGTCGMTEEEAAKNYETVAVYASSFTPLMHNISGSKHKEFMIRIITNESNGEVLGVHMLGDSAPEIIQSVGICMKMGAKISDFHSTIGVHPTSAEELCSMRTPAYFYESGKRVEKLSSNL", "details": "earlier work of the authors; cited from earlier work", "source_text": "Considering that the biologically functional form of TryR is a homodimer, in 2013, we devised an alternative inhibition strategy aimed at disrupting the protein–protein interactions at the homodimer interface of Leishmania infantum TryR (LiTryR). Thus, by combining molecular modeling and site-directed mutagenesis studies, we identified and validated, for the first time, Glu436 (located at an interfacial α-helix spanning from Pro435 to Met447) as a “hotspot” for LiTryR homodimer stabilization. As a “proof of concept”, we designed and tested a small library of linear peptides [[22] ..."}
{"substance": "Ac-PKIIQSVGISMKM-NH2 [TRL35, Nα-acetylated 13-mer peptide, earlier LiTryR dimerization disruptor]", "values": [{"measurement": "inhibition of the oxidoreductase activity of LiTryR", "result": "submicromolar range"}]}
